Measured values published in patent US10941158B2, “Pyrazole ACC inhibitors and uses thereof” (Gilead Apollo, LLC, priority 2015, dated 2021).
In brackets after ≈: the same amount, converted by molar mass. Read-outs that look alike come from different tables or passages of the source.

Legend:
[1] = target: human (hACC2) ACC2 (Homo sapiens, UniProt O00763); experiment: In vitro Acetyl-CoA Carboxylase (ACC) inhibition assay (ADP-Glo), hACC2; format: biochemical
Description: The detailed procedure is as follows. […] 10 μL ADP glo reagent was added. […] 20 μL kinase detection reagent was added.
“NA” stands for “not assayed.”

[2] = test system: C. albicans ATCC 90028; experiment: Anti-Fungal (Candida) Activity Assay, broth microtiter MIC; format: cell-based; settings: read-out: MIC C. albicans ATCC 90028
Description: (§1) Compounds of the present invention were evaluated in an Anti-Fungal Activity Assay. An exemplary procedure for the assay, which measures the susceptibility of various Candida species to anti-fungal compounds, follows. Compounds to be tested (including fluconazole and amphotericin B) were dissolved in DMSO to obtain a solution having a concentration of 1 mg/mL. […] All species were grown from frozen stock by directly plating on to freshly prepared Sabouraud Dextrose agar (BD, Difco) and incubated overnight in ambient air at 35° C. for 24 h. A direct suspension was prepared in RPMI 1640+MOPS (Lonza, Biowhittaker) by taking individual colonies from the overnight cultures using sterile swabs soaked in sterile saline. The concentration of the suspension was determined using pre-determined standard curves. […] Broth microtiter MIC challenge plates were prepared following CLSI guidelines (M27-A3, Vol. 28 No. 14). The original CLSI guidelines focused on reading Candida MICs after 48 h of incubation. As reading after only 24 h offers a clear advantage of patient care, QC limits are being established for all drugs at 24 h. That being said there are no known interpretive breakpoints for amphotericin B at 24 h and the current fluconazole interpretive breakpoints are based on a 48 h reading. The MIC for the test compounds were recorded at 48 h. All MIC determinations were achieved by visually comparing the growth found in the antibiotic challenged wells to that of the growth control.

[3] = test system: C. krusei ATCC 6258; experiment: as above; format: cell-based; settings: Pichia kudriavzevii, read-out: MIC C. krusei ATCC 6258
Description: as §1

[4] = test system: C. parapsilosis ATCC 22019; experiment: as above; format: cell-based; settings: Lodderomyces parapsilosis, read-out: MIC C. parapsilosis ATCC 22019
Description: as §1

[5] = test system: Botrtyis cinerea (Bc); experiment: Growth inhibition assay of fungal pathogens; format: cell-based; settings: 48 h, read-out: Concentration at 90% Inhibition Bc
Description: (§2) Compounds of the present invention were evaluated in a growth inhibition assay to determine the ability to control the growth of fungal pathogens, such as Botrtyis cinerea (Bc), Collectotrichum graminicola (Cg). Diplodia maydis (Dm), Fusarium moniliforme (Fm), Fusarium virguliforme (Fv), Phytophthora capsici (Pc), Rhizoctonia solani (Rs), and Septoria tritici (St). Compounds to be tested were dissolved in DMSO at 2.5 mg/ml to produce compound stock solutions (“stocks”). Stocks were diluted with DMSO by a five-fold dilution in a 96-well stock plate, and two sets of final concentrations of 50, 10, and 2 ppm or 2, 0.4, and 0.08 ppm were obtained in vitro. A set of positive controls was also prepared, with various concentrations of Soraphen (2, 0.4, and 0.08 ppm), Metalaxyl (1.1, 0.22, and 0.04 ppm), and Metconazole (2, 0.4, and 0.08 ppm or 0.2, 0.04, and 0.008 ppm) after the five-fold dilutions. Negative controls on each plate included 2% DMSO, water, and a blank (media+2% DMSO). Fungal spores were isolated from previously sub-cultured plates of Botrtyis cinerea (Bc). Collectotrichum graminicola (Cg). Diplodia maydis (Dm), Fusarium moniliforme (Fm), Fusarium virguliforme (Fv), Phytophthora capsici (Pc), and Septoria tritici (St). The isolated spores were diluted to individual concentrations with a 17% V8 liquid media. For Rhizoctonia solani (Rs) and Pythium irregulare, 1.5 mm mycelial plugs were used in place of spores and ¼ Potato Dextrose Broth (PDB) was used for dilution. The spore concentrations and plug sizes were based on growth curves generated at 48 hours for each pathogen. In a second 96-well plate, the spores or mycelial plugs, media, diluted compound solutions, and controls were combined. Once the compound was added, a true final concentration of compound in each well was measured by an OD600 reading, which adjusted for any compound precipitation that might have occurred in the well. Plate readings were repeated at both 24 and 48 hours. The blank negative control was used as a background subtraction. Additional visual ratings were performed at both 24 and 48 hours for checking on precipitation and confirming efficacy. Visual and OD600 ratings of the compounds at 48 hours were compared to the 2% DMSO negative control, and the percent of pathogen growth inhibition was determined based on those values.

[6] = test system: Collectotrichum graminicola (Cg); experiment: Growth inhibition assay of fungal pathogens; format: cell-based; settings: 48 h, read-out: Concentration at 90% Inhibition Cg
Description: as §2

[7] = test system: Diplodia maydis (Dm); experiment: Growth inhibition assay of fungal pathogens; format: cell-based; settings: Stenocarpella maydis, 48 h, read-out: Concentration at 90% Inhibition Dm
Description: as §2

[8] = test system: Fusarium moniliforme (Fm); experiment: Growth inhibition assay of fungal pathogens; format: cell-based; settings: for IC90: Fusarium verticillioides, 48 h, read-out: Concentration at 90% Inhibition Fm
Description: as §2

[9] = test system: Fusarium virguliforme (Fv); experiment: Growth inhibition assay of fungal pathogens; format: cell-based; settings: 48 h
Description: as §2

[10] = test system: Phytophthora capsici (Pc); experiment: Growth inhibition assay of fungal pathogens; format: cell-based; settings: for IC90: Phytophthora capsici, read-out: Concentration at 90% Inhibition Pc
Description: as §2

[11] = test system: Rhizoctonia solani (Rs); experiment: Growth inhibition assay of fungal pathogens; format: cell-based; settings: 48 h, read-out: Concentration at 90% Inhibition Rs
Description: as §2

[12] = test system: Septoria tritici (St); experiment: Growth inhibition assay of fungal pathogens; format: cell-based; settings: for IC90: Zymoseptoria tritici, read-out: Concentration at 90% Inhibition St
Description: as §2

[13] = read-out: Concentration at 90% Inhibition Fv, Table 4a, 48 hours
[14] = read-out: Concentration at 90% Inhibition Fv, Table 4b, 48 hours
[15] = ATCC90028, 3 replicates, MIC recorded at 48 h
[16] = ATCC6258, 3 replicates, MIC recorded at 48 h
[17] = ATCC22019, 3 replicates, MIC recorded at 48 h
[18] = Table 4a, 48 hours, read-out: Concentration at 90% Inhibition Fv
[19] = Table 4b, 48 hours, read-out: Concentration at 90% Inhibition Fv

Sequence of human (hACC2) ACC2 (O00763 whole entry): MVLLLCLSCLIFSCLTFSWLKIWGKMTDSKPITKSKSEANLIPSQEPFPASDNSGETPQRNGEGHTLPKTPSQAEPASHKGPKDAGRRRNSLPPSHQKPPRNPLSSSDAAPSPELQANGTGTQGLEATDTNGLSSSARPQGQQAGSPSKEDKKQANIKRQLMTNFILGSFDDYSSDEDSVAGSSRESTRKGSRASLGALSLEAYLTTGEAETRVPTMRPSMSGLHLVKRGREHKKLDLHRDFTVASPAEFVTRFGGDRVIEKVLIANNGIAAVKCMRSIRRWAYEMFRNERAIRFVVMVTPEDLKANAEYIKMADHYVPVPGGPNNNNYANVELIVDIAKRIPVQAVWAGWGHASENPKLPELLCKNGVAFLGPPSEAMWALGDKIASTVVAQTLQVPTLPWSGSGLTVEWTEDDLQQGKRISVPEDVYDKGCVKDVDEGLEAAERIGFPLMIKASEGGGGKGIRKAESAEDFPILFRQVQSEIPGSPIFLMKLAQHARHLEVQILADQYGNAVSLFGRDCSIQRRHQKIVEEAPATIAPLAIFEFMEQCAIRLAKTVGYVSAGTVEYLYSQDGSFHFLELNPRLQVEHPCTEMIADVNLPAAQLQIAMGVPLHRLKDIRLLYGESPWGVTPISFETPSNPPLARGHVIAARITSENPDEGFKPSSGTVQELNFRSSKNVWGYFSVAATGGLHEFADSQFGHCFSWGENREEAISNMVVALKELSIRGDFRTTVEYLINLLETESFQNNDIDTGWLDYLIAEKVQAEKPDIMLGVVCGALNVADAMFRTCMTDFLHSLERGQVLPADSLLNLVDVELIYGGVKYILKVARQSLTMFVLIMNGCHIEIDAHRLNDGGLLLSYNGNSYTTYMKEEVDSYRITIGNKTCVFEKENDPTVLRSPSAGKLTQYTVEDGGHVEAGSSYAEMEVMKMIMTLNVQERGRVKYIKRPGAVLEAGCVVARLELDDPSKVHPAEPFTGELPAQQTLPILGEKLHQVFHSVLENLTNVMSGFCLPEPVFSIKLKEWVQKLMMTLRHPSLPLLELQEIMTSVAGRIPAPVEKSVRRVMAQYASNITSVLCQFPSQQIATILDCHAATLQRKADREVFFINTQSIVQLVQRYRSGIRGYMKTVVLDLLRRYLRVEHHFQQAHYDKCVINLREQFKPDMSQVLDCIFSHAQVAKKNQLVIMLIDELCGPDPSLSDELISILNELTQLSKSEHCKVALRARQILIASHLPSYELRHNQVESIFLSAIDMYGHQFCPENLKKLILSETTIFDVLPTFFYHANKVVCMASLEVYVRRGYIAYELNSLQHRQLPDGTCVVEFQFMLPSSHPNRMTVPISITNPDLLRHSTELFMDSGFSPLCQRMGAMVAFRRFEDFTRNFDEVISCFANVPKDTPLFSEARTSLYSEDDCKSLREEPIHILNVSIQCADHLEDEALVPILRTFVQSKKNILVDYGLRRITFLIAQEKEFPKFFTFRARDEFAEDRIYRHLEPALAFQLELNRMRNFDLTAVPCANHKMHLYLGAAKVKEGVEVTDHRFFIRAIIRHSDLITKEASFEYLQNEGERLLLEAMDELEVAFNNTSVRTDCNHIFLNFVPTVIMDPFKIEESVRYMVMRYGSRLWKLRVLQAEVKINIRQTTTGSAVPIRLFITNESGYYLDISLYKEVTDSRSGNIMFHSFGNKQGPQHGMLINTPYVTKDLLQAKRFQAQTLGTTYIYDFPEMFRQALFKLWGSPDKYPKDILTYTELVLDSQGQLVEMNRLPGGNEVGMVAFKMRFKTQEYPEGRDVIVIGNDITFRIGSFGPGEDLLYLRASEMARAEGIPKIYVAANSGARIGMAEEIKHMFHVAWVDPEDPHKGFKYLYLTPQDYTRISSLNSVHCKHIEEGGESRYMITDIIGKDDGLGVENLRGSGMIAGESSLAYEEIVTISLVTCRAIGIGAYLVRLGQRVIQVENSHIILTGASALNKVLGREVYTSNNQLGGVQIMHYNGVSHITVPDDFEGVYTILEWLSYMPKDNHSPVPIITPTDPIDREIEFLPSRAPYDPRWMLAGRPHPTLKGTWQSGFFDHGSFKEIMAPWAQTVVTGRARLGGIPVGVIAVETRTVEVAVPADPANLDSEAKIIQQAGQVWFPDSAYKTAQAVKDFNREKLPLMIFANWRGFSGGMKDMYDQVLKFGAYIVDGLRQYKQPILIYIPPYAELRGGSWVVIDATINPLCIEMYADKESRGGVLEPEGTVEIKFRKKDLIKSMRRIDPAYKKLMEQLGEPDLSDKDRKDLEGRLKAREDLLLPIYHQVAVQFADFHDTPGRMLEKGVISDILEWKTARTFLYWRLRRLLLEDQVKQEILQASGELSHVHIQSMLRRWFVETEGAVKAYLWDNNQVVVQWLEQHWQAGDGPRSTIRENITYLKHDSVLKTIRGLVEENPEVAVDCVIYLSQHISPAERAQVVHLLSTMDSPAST

SMILES | IC50 [1] [nM] | MIC ([2]; ATCC90028, 48 h) [µg/mL] | MIC ([3]; ATCC6258, 48 h) [µg/mL] | MIC ([4]; ATCC22019, 48 h) [µg/mL] | IC90 ([5]; Table 4a) [µg/mL] | IC90 ([5]; Table 4b) [µg/mL] | IC90 ([6]; Table 4a) [µg/mL] | IC90 ([6]; Table 4b) [µg/mL] | IC90 ([7]; Table 4a) [µg/mL] | IC90 ([7]; Table 4b) [µg/mL] | IC90 [8] [µg/mL] | Concentration at 90% Inhibition Fm ([8]; Table 4b, 48 hours) | IC90 [9, 13] [µg/mL] | IC90 [9, 14] [µg/mL] | IC90 ([10]; 48 h, Table 4a) [µg/mL] | IC90 ([10]; 48 h, Table 4b) [µg/mL] | IC90 ([11]; Table 4a) [µg/mL] | IC90 ([11]; Table 4b) [µg/mL] | IC90 ([12]; 48 h, Table 4a) [µg/mL] | IC90 ([12]; 48 h, Table 4b) [µg/mL] | other results
COc1ccc(F)cc1[C@H](Cn1c(=O)n(C(C)(C)C(=O)NC(C)C)c(=O)c2c(C)c(-n3cccn3)sc21)OC1CCOCC1 [Compound I-6, (R)-2-(1-(2-(5-fluoro-2-methoxyphenyl)-2-((tetrahydro-2H-pyran-4-yl)oxy)ethyl)-5-methyl-2,4-dioxo-6-(1H-pyrazol-1-yl)-1,4-dihydrothieno[2,3-d]pyrimidin-3(2H)-yl)-N-isopropyl-2-methylpropanamide] | 10 to 40 | 0.25 to 1 (≈ 0.398 to 1.59 µM) | 0.25 to 1 (≈ 0.398 to 1.59 µM) | 1.1 to 2 (≈ 1.75 to 3.19 µM) | 2 (≈ 3.19 µM) | 2 (≈ 3.19 µM) | 10 (≈ 15.9 µM) | 2 (≈ 3.19 µM) | 10 (≈ 15.9 µM) | 2 (≈ 3.19 µM) | 0.4 (≈ 0.637 µM) | A (“A” provided a compound concentration of 0.4 ppm at 90% inhibition of fungal pathogens) | 2 (≈ 3.19 µM) | 2 (≈ 3.19 µM) | > 50 | > 50 | > 50 | 10 (≈ 15.9 µM) | > 50 | > 50 | 
COc1ccc(F)cc1[C@H](Cn1c(=O)n(C(C)(C)C(=O)N2CCCC2)c(=O)c2c(C)c(-n3cccn3)sc21)OC1CCOCC1 [Compound I-7, (R)-1-(2-(5-fluoro-2-methoxyphenyl)-2-((tetrahydro-2H-pyran-4-yl)oxy)ethyl)-5-methyl-3-(2-methyl-1-oxo-1-(pyrrolidin-1-yl)propan-2-yl)-6-(1H-pyrazol-1-yl)thieno[2,3-d]pyrimidine-2,4(1H,3H)-dione] | 3 to 10 |  |  |  | 2 (≈ 3.13 µM) | 2 (≈ 3.13 µM) | 0.4 (≈ 0.625 µM) | 0.4 (≈ 0.625 µM) | 10 (≈ 15.6 µM) | 2 (≈ 3.13 µM) |  |  |  |  |  |  | 2 (≈ 3.13 µM) | 2 (≈ 3.13 µM) |  |  | MIC [2, 15]: 1.1 to 2 µg/mL (≈ 1.72 to 3.13 µM); MIC [3, 16]: 0.25 to 1 µg/mL (≈ 0.391 to 1.56 µM); MIC [4, 17]: 1.1 to 2 µg/mL (≈ 1.72 to 3.13 µM); IC90 ([8]; Table 4a, 48 hours): 0.08 µg/mL (≈ 0.125 µM); IC90 ([8]; Table 4b, 48 hours): 0.08 µg/mL (≈ 0.125 µM); IC90 [9, 18]: > 50 µg/mL; IC90 [9, 19]: 10 µg/mL (≈ 15.6 µM); IC90 ([10]; Table 4a, 48 hours): > 50 µg/mL; Concentration at 90% Inhibition Pc ([10]; Table 4b, 48 hours): D (“D” provided a compound concentration of >50 ppm at 90% inhibition of fungal pathogens); Concentration at 90% Inhibition St ([12]; Table 4b, 48 hours): D (“D” provided a compound concentration of >50 ppm at 90% inhibition of fungal pathogens); IC90 ([12]; Table 4a, 48 hours): > 50 µg/mL
COc1ccc(F)cc1[C@H](Cn1c(=O)n(C(C)(C)C(=O)N2CCCCC2)c(=O)c2c(C)c(-n3cccn3)sc21)OC1CCOCC1 [Compound I-8, (R)-1-(2-(5-fluoro-2-methoxyphenyl)-2-((tetrahydro-2H-pyran-4-yl)oxy)ethyl)-5-methyl-3-(2-methyl-1-oxo-1-(piperidin-1-yl)propan-2-yl)-6-(1H-pyrazol-1-yl)thieno[2,3-d]pyrimidine-2,4(1H,3H)-dione] | 10 to 40 | 0.25 to 1 (≈ 0.382 to 1.53 µM) | 0.25 to 1 (≈ 0.382 to 1.53 µM) | 0.25 to 1 (≈ 0.382 to 1.53 µM) | 2 (≈ 3.06 µM) | 2 (≈ 3.06 µM) | 2 (≈ 3.06 µM) | 2 (≈ 3.06 µM) | 10 (≈ 15.3 µM) | 2 (≈ 3.06 µM) | 0.08 (≈ 0.122 µM) | AA (“AA” provided a compound concentration of 0.08 ppm at 90% inhibition of fungal pathogens) | 2 (≈ 3.06 µM) | 2 (≈ 3.06 µM) | > 50 | > 50 | > 50 | 10 (≈ 15.3 µM) | > 50 | > 50 | 
COc1ccccc1[C@H](Cn1c(=O)n(C(C)(C)C(=O)NC(C)C)c(=O)c2c(C)c(-n3cccn3)sc21)OC1CCOCC1 [Compound I-11, (R)—N-isopropyl-2-(1-(2-(2-methoxyphenyl)-2-((tetrahydro-2H-pyran-4-yl)oxy)ethyl)-5-methyl-2,4-dioxo-6-(1H-pyrazol-1-yl)-1,4-dihydrothieno[2,3-d]pyrimidin-3(2H)-yl)-2-methylpropanamide] | 10 to 40 | > 4.1 | > 4.1 | > 4.1 | > 50 | 10 (≈ 16.4 µM) | > 50 | 10 (≈ 16.4 µM) | > 50 | 10 (≈ 16.4 µM) | 2 (≈ 3.28 µM) | B (“B” provided a compound concentration of 2.0 ppm at 90% inhibition of fungal pathogens) | > 50 | 10 (≈ 16.4 µM) | > 50 | > 50 | > 50 | > 50 | > 50 | > 50 | 
COc1ccccc1[C@H](Cn1c(=O)n(C(C)(C)C(=O)N2CCCC2)c(=O)c2c(C)c(-n3cccn3)sc21)OC1CCOCC1 [Compound I-12, (R)-1-(2-(2-methoxyphenyl)-2-((tetrahydro-2H-pyran-4-yl)oxy)ethyl)-5-methyl-3-(2-methyl-1-oxo-1-(pyrrolidin-1-yl)propan-2-yl)-6-(1H-pyrazol-1-yl)thieno[2,3-d]pyrimidine-2,4(1H,3H)-dione] | 3 to 10 |  |  |  | > 50 | 10 (≈ 16.1 µM) | 10 (≈ 16.1 µM) | 2 (≈ 3.22 µM) | > 50 | 10 (≈ 16.1 µM) |  |  |  |  |  |  | 2 (≈ 3.22 µM) | 2 (≈ 3.22 µM) |  |  | MIC [2, 15]: 2.1 to 4 µg/mL (≈ 3.38 to 6.43 µM); MIC [3, 16]: 2.1 to 4 µg/mL (≈ 3.38 to 6.43 µM); MIC [4, 17]: > 4.1 µg/mL; IC90 ([8]; Table 4a, 48 hours): 0.4 µg/mL (≈ 0.643 µM); IC90 ([8]; Table 4b, 48 hours): 0.4 µg/mL (≈ 0.643 µM); IC90 [9, 18]: > 50 µg/mL; IC90 [9, 19]: 10 µg/mL (≈ 16.1 µM); IC90 ([10]; Table 4a, 48 hours): > 50 µg/mL; Concentration at 90% Inhibition Pc ([10]; Table 4b, 48 hours): D (“D” provided a compound concentration of >50 ppm at 90% inhibition of fungal pathogens); Concentration at 90% Inhibition St ([12]; Table 4b, 48 hours): D (“D” provided a compound concentration of >50 ppm at 90% inhibition of fungal pathogens); IC90 ([12]; Table 4a, 48 hours): > 50 µg/mL
